From PubChem BioAssay AID651974 (The Scripps Research Institute Molecular Screening Center, 2013)
Activity calls are given as the source filed them. The rule behind the calls is not given here.

Assay: GAL4-VP16 transactivation reporter inhibitors, late-stage follow-up, counter-screen for LRH-1 inverse agonist project, cell-based, luminescence, dose response (AID 651974)
Conditions: HEK293 cells transfected with Gal4-VP16 and pGL4.31 luciferase reporter

For `Cc1cc(=O)oc2c(C)c(OCC(=O)NC3CC(C)(C)NC(C)(C)C3)ccc12`, which IC50 is on record?
Its IC50 is > 35.9 µM (inactive).

For `O=C(COc1ccc2c3c(c(=O)oc2c1)CCC3)NCc1ccncc1`, which IC50 is on record?
Its IC50 is > 35.9 µM (inactive).

With `O=C(CSc1nnc(CNC(=O)c2c(F)cccc2F)o1)Nc1ccc2c(c1)OCCO2` as the molecule, how does the IC50 read?
Its IC50 is > 35.9 µM (inactive).

With `CC(=O)c1ccc(OC(C)C(=O)OCC(=O)NCCc2ccccc2)cc1` (centres undefined) as the molecule, how does the IC50 read?
The IC50 was > 35.9 µM (inactive).
